Measurements: ChEMBL document CHEMBL1201862, “PubChem BioAssay data set” (2004)
Active and inactive are the calls of the source.

Tests used:
[1] = system: Streptococcus sp. 'group A'; assay: growth inhibition of control SK(-) GAS strain, dose response, counter-screen for streptokinase expression inhibitor project, luminescence, kanamycin, BacTiterGlo, confirmation (AID 1900); format: functional, organism-based
Streptokinase A = target: T1, Streptokinase A (Streptococcus pyogenes serotype M1, UniProt P10520); assay: S. pyogenes streptokinase expression inhibitors, potency, dose response, plasminogen activation absorbance, OD405 (AID 1914); format: functional, Streptococcus pyogenes M1 GAS;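 also: secreted streptokinase activity via plasminogen activation per viability signal from cell pellet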
T1 sequence (P10520 whole entry): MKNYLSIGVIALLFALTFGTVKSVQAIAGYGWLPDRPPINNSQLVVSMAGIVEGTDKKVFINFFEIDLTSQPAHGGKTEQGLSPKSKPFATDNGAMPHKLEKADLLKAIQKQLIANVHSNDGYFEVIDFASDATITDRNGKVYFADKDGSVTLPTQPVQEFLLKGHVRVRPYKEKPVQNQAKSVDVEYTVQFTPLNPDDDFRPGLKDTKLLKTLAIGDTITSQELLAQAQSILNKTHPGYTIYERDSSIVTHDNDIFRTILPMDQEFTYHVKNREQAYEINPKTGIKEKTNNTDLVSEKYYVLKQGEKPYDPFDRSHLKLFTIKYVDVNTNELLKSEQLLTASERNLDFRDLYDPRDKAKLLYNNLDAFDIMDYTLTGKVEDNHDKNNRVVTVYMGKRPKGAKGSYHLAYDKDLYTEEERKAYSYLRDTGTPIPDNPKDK

Streptococcus [2] = assay: Group A Streptococcus viability loss, dose response, counter-screen for streptokinase expression inhibitor project, luminescence, BacTiterGlo (AID 1915); format: functional, organism-based;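 also: potency for reduction of bacterial viability or growth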
Streptococcus [3] = assay: Luminescence Microorganism-Based Dose Response Follow up to Identify Compounds Cytotoxic to Streptococcus. [Related pubchem assays: 1677 (Project Summary), 1915, 1914, 1902 (Retest at Dose), 1900 (Counter Screen), 1662 (Primary HTS)]; format: functional, organism-based
Cytochrome P450 2C9 = Cytochrome P450 2C9 (Homo sapiens, UniProt P11712); conditions: Potency
Tumor necrosis factor = Tumor necrosis factor (Homo sapiens, UniProt P01375); assay: TNFa-triggered NF-kB activation inhibitors, SAR follow-up, cell-based, revised (AID 2337); format: functional
HEK293 [4] = assay: SAR analysis of compounds that are cytotoxic to HEK293 - Set 3. [Related pubchem assays (depositor defined):AID1575, AID1578, AID1848, AID1849, AID2001, AID2333, AID2334, AID2335, AID2337, AID2469]; format: functional, cell-based; conditions: Homo sapiens
HEK293 [5] = assay: cells; conditions: Homo sapiens
Interleukin-8 = Interleukin-8 (Homo sapiens, UniProt P10145); assay: SAR analysis of tumor necrosis factor alpha (TNF-alpha) induced IL-8 secretion in MCF-7/NOD1 cells. [Related pubchem assays (depositor defined):AID1575, AID2250, AID2260]; format: functional, cell-based
[6] = target: T2, Short transient receptor potential channel 4 (Mus musculus, UniProt Q9QUQ5); assay: TRPC4 positive allosteric modulators, dose response, cell-based, HEK293 TRPC4/mu-opioid, Fluo-4 calcium, EC20 DAMGO (AID 434941); format: functional
T2 sequence (Q9QUQ5 whole entry): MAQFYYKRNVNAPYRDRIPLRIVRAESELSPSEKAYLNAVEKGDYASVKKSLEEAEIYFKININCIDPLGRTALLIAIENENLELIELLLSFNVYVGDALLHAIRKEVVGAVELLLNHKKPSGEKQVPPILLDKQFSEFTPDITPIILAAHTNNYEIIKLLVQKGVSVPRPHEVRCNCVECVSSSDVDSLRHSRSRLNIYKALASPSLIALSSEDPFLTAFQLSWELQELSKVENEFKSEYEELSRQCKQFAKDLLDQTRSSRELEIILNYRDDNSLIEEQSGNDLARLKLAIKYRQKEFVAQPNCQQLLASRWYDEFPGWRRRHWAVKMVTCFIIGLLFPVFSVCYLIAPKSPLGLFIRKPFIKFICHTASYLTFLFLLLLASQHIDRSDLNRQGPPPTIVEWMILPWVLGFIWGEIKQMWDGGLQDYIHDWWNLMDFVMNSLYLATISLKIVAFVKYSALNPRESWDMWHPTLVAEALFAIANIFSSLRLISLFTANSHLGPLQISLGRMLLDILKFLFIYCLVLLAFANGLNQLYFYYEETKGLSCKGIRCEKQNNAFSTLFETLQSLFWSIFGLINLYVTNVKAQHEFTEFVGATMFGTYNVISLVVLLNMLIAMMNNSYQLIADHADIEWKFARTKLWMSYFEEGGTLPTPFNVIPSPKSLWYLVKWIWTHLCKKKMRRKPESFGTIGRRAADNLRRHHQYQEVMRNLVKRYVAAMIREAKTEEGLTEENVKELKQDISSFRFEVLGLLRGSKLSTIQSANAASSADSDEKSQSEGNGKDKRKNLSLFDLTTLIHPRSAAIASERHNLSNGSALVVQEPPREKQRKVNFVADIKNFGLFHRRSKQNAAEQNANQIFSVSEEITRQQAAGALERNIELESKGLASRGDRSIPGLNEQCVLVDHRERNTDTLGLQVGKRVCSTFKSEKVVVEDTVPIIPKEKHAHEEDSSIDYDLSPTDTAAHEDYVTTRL

[7] = HEp-2 cell cytotoxicity, dose response, cytotoxicity control for RSV inhibitor project, HTS (AID 2410); format: functional; conditions: human respiratory syncytial virus
[8] = target: G-protein coupled receptor 55 (Homo sapiens, UniProt Q9Y2T6); assay: GPR55 antagonists blocking LPI-driven arrestin recruitment, primary screen, imaging, U2OS, beta-arrestin-GFP, LPI agonist (AID 2013); format: functional;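 also: antagonist potency measured as reduced agonist-driven arrestin aggregation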
[9] = target: T3, Tyrosine-protein phosphatase non-receptor type 7 (Homo sapiens, UniProt P35236); format: functional
T3 sequence (P35236 whole entry): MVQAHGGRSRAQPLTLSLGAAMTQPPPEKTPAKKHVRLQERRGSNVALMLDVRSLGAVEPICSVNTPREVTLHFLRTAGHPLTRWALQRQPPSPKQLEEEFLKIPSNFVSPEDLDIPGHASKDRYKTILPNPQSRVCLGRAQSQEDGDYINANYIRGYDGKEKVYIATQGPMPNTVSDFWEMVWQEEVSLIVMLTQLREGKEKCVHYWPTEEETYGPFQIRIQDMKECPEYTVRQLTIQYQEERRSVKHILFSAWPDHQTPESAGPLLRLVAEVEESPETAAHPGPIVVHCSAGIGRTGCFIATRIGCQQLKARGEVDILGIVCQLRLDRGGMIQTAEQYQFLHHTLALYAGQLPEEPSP

[10] = target: Heat shock 70 kDa protein 1A (Homo sapiens, UniProt P0DMV8); assay: Hsp70 inhibitors, SAR follow-up, biochemical, fluorescence polarization (AID 1072)
[11] = target: T4, Dual specificity protein phosphatase 6 (Rattus norvegicus, UniProt Q64346)
T4 sequence (Q64346 whole entry): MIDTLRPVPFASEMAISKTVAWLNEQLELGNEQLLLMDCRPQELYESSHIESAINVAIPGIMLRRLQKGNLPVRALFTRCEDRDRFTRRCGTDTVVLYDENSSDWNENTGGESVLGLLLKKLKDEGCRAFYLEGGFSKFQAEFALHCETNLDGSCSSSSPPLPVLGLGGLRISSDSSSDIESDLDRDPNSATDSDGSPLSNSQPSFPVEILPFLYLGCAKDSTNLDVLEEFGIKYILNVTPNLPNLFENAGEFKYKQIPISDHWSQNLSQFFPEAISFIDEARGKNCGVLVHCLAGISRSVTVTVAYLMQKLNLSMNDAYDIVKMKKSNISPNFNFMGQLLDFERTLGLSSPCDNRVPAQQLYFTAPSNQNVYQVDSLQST

[12] = target: Heat shock cognate 71 kDa protein (Homo sapiens, UniProt P11142); assay: In Vitro Hsc70 Dose Response Fluorescence Polarization Assay. [Related pubchem assays: 1072 ]
[13] = target: Glyceraldehyde-3-phosphate dehydrogenase (Homo sapiens, UniProt P04406)
[14] = target: T4, Dual specificity protein phosphatase 6; format: functional
[15] = target: Cyclin-dependent kinase 5/CDK5 activator 1 (Homo sapiens, UniProt Q00535); assay: CDK5/p35 kinase inhibitors, dose response, biochemical, cherry-picked samples, set 2 (AID 504545)
[16] = target: Scavenger receptor class B member 1 (Mus musculus, UniProt Q61009); assay: inhibitors of SR-BI mediated HDL lipid uptake, dose response, ldlA[mSR-BI] cells, fluorescence, cherry pick (AID 493194); format: functional, cell-based;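 also: cellular uptake of fluorescent DiI-labeled HDL measured as cell fluorescence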
Sequence of Scavenger receptor class B member 1 (Q61009 whole entry): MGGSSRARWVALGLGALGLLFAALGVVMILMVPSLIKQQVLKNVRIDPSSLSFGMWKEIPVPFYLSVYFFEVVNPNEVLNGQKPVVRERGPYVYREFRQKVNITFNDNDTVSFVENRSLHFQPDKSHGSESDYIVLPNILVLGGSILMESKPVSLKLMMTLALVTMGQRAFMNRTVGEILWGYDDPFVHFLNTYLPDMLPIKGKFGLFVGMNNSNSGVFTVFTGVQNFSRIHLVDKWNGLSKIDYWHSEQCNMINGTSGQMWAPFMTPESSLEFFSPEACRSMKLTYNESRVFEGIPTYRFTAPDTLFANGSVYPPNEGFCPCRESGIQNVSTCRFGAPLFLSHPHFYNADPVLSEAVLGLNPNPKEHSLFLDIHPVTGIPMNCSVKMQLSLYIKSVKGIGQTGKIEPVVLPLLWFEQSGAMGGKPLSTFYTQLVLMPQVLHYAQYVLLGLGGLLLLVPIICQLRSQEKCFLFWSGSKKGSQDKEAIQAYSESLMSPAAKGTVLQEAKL

Sequence of Cytochrome P450 2C9 (P11712 whole entry): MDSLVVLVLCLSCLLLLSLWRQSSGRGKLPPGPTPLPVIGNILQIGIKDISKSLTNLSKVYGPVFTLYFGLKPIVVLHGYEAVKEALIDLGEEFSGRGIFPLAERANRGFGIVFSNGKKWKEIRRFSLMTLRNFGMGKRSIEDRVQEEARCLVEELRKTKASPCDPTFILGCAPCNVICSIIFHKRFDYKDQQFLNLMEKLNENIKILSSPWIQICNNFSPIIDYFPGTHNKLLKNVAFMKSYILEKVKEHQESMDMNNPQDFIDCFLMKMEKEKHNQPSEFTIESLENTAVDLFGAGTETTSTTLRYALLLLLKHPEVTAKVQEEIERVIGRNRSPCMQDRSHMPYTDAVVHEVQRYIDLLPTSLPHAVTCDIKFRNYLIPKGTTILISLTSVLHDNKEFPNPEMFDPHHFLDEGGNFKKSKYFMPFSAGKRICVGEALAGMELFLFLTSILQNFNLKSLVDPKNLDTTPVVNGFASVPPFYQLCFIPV
Sequence of Interleukin-8 (P10145 whole entry): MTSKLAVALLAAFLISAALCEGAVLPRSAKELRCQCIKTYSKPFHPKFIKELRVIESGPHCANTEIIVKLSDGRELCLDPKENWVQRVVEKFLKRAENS
Sequence of Heat shock cognate 71 kDa protein (P11142 whole entry): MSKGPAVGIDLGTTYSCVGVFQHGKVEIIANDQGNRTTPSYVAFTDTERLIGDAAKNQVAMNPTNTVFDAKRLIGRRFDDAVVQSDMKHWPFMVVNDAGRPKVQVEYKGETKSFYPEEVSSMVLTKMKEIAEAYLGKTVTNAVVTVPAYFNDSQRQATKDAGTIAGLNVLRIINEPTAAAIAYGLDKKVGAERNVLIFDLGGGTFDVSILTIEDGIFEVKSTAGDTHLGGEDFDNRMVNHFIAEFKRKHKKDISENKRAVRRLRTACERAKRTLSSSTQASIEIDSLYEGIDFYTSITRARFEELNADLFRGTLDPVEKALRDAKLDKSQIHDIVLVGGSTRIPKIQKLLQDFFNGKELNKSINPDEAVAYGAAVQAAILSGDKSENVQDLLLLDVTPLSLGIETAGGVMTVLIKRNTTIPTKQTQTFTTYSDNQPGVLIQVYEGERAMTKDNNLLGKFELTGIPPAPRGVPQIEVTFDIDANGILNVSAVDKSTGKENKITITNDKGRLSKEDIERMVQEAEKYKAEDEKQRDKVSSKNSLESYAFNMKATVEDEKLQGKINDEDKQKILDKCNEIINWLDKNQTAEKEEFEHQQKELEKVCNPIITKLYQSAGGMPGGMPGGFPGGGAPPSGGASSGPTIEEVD
Sequence of G-protein coupled receptor 55 (Q9Y2T6 whole entry): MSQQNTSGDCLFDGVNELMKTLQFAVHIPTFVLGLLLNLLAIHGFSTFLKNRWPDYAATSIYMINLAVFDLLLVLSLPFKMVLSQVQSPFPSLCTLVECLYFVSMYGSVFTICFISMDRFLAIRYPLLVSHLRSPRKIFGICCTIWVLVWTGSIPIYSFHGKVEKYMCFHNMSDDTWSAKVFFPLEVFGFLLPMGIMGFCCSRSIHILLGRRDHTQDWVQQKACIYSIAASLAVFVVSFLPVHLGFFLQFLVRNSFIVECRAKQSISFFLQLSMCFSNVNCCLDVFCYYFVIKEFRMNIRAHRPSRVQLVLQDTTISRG
Sequence of Tumor necrosis factor (P01375 whole entry): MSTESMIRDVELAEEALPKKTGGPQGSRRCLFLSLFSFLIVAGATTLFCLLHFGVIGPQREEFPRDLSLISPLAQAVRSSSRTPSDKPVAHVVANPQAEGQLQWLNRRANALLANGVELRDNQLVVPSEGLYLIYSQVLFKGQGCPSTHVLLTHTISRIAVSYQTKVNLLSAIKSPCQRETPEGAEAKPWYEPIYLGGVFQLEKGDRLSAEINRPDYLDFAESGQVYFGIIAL
Sequence of Cyclin-dependent kinase 5/CDK5 activator 1 (Q00535 whole entry): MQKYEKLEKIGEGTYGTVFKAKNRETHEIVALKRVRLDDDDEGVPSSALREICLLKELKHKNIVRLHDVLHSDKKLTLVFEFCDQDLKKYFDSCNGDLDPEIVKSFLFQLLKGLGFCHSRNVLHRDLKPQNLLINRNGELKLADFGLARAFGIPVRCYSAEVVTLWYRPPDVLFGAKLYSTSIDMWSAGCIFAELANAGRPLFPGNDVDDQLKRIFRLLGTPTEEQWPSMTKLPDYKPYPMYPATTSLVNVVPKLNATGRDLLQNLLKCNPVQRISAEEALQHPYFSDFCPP
Sequence of Cyclin-dependent kinase 5/CDK5 activator 1 (Q15078 whole entry, further chain): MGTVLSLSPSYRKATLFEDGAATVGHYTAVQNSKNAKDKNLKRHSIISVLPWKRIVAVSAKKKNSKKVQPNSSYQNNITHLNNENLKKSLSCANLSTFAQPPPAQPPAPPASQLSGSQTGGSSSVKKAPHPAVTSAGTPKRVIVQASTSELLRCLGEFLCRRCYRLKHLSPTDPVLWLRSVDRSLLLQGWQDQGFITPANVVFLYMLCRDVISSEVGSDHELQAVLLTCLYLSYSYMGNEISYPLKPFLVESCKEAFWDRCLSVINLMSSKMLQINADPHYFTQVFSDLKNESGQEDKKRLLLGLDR
Sequence of Glyceraldehyde-3-phosphate dehydrogenase (P04406 whole entry): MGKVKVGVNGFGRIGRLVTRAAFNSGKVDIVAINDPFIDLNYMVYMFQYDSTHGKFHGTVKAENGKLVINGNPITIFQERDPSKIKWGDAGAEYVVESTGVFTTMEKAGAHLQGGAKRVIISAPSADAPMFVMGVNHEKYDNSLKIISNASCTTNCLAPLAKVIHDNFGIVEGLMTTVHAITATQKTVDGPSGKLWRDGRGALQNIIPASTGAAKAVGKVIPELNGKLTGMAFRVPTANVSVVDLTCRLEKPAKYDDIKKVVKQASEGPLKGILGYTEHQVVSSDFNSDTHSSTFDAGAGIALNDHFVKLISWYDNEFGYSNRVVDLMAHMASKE
Sequence of Heat shock 70 kDa protein 1A (P0DMV8 whole entry): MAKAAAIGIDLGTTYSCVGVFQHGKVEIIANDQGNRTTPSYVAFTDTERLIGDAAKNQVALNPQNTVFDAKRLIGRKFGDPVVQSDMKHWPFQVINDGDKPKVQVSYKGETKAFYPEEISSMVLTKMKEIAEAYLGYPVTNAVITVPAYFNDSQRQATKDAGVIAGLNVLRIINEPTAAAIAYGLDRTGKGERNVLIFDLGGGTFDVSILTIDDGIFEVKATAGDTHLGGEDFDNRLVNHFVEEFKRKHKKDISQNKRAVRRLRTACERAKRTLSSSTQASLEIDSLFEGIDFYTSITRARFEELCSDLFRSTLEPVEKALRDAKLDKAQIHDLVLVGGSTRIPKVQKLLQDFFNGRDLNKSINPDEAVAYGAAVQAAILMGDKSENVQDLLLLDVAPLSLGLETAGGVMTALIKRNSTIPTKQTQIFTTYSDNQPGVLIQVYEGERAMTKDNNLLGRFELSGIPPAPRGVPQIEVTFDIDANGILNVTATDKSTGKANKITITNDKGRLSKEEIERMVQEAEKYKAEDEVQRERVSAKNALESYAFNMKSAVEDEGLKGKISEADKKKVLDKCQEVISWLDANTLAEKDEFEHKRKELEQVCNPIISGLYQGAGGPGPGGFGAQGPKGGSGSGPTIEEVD

In the case of `CC(C)c1ccc(NC(=O)c2cc(S(=O)(=O)NCC3COc4ccccc4O3)ccc2F)cc1` (stereo not given), the EC50 [1] was 12.2 µM (active), the EC50 (Streptokinase A) was 3.53 µM (active) and the EC50 (Streptococcus [2]) was 74.4 µM (active). The EC50 (Streptococcus [3]) was > 500 µM (not active).
For `CC(C)CCN1CCc2nc(COc3ccccc3)c3c(c2C1)COC(C)C3` (stereo not given), the AC50 (Cytochrome P450 2C9) was 6.31 µM (inconclusive).
For `Cc1ccc(S(=O)(=O)n2c(N)nc3cc(C)c(C)cc32)cc1`, the IC50 (Tumor necrosis factor) was > 20 µM (inactive), the IC50 (HEK293 [4]) was > 20 µM (inactive) and the IC50 (HEK293 [5]) was > 20 µM (inactive). For the same compound, the IC50 (Interleukin-8) was > 5 µM (inactive).
For `Cc1cc(OCC(=O)NC2CCCCC2)ccc1Cl`, the EC50 [6] was 1.88 µM (active).
In the case of `COc1ccc(-c2sc(Nc3ccccc3)n[n+]2-c2ccc(F)cc2)c(C)c1C`, the CC50 [7] was 28.5 µM (active) and the IC50 [8] was 2.11 µM (active).
For `COc1ccc2c(c1)C1C=CCC1C(C(=O)O)N2` (stereo not given), the IC50 [9] was 13.2 µM (active), the IC50 [10] was 20.6 µM (active) and the IC50 [11] was 33.5 µM (active). For the same compound, the IC50 [12] was > 100 µM (not active), the IC50 [13] was > 100 µM (not active) and the IC50 [14] was 32 µM (active).
With `Clc1cncc(Cl)c1N/N=C/c1ccncc1` the AC50 [15] was 52.8 µM (active).
With `Cc1ccc2oc(-c3cccc(NC(=O)c4cc(-n5cnnc5)ccc4Cl)c3)nc2c1` the AC50 [16] was 8.18 µM (active).
